# Experimental data as given in ChEMBL document CHEMBL1201862, “PubChem BioAssay data set” (2004).
# Calls of active or inactive are those of the source.
# Legend:
# [1] = molecular target: Scavenger receptor class B member 1 (Mus musculus, UniProt Q61009); assay: inhibitors of SR-BI-mediated HDL uptake, dose response, cell-based, ldlA[mSR-BI] CHO, DiI fluorescence, dry powder, set 10 (AID 624029); format: functional
# [2] = tested on: HEK293; assay: HEK293T cell cytotoxicity, dose response, cytotoxicity control, ATP luminescence, cherry-pick samples (AID 687005); format: functional, cell-based; conditions: Homo sapiens;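 further: cells exposed to compound for 48 hours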
# [3] = inhibitors of HIV Env-driven cell fusion, dose response, cherry-pick (AID 652057); format: functional, cell-based
# [4] = tested on: HepG2; assay: HepG2 cell cytotoxicity, dose response, cytotoxicity control, cherry-picks, set 2 (AID 687002); format: functional, cell-based; conditions: Homo sapiens
# [5] = inhibitors of clade B AD8 Env fusion, dose response, cell-based, cherry-pick (AID 652062); format: functional;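 further: luciferase signal from cell-cell fusion driven by HIV-1 clade B AD8 Env; potency is for inhibitors of fusion seen as a drop in luminescence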
# [6] = HEK293 Cytotoxicity Assay Measured in Cell-Based System Using Plate Reader - 7071-01_Inhibitor_Dose_CherryPick_Activity_Set2.; format: functional
# [7] = tested on: HeLa; assay: HeLa cell cytotoxicity, dose response, cytotoxicity control, ATP luminescence, cherry-pick samples (AID 687004); format: functional, cell-based; conditions: Homo sapiens
# [8] = molecular target: Metabotropic glutamate receptor 3 (Rattus norvegicus, UniProt P31422); assay: mGlu3 NAM potency via calcium readout, dose response, mGlu3 NAM project, TREx293 cells, Galpha15, calcium flux (AID 651840); format: functional
# [9] = HeLa cell cytotoxicity, dose response, cytotoxicity control, 24 h, plate reader, dry powder (AID 686928); format: functional, cell-based
# [10] = molecular target: Mu-type opioid receptor (Homo sapiens, UniProt P35372); assay: Late-stage results from the probe development effort to identify antagonists of OPRK1: luminescence-based cell-based dose response OPRM1 counterscreen.; format: functional
# [11] = molecular target: Delta-type opioid receptor (Homo sapiens, UniProt P41143); assay: Late-stage results from the probe development effort to identify antagonists of OPRK1: fluorescence-based cell-based dose response OPRD1 counterscreen.; format: functional
# [12] = molecular target: Potassium channel subfamily K member 9 (Homo sapiens, UniProt Q9NPC2); assay: TASK3 (KCNK9) channel inhibitors, thallium flux, SAR follow-up, selectivity assay for TASK1 inhibitor project, cell-based, FluxOR thallium flux, concentration-response (AID 652211); format: functional;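 further: potency is for inhibitors of the channel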
# [13] = molecular target: Potassium channel subfamily K member 3 (Homo sapiens, UniProt O14649); assay: TASK1 (KCNK3) potassium channel inhibitors, SAR follow-up, CHO cells, FluxOR thallium flux (AID 652212); format: functional
# [14] = molecular target: Potassium channel subfamily K member 3 (Rattus norvegicus, UniProt O54912); assay: SAR analysis for the identification of selective inhibitors of the two-pore domain potassium channel TASK1(KCNK3):Automated Electrophysiology.; format: functional
# [15] = T. cruzi growth inhibition in host cells, dose response, cell-based, plate reader, dry powder, set 2 (AID 652275); format: functional
# [16] = A Cell-Based Confirmatory Screen for Compounds that Inhibit VEEV, TC-83 (7).; format: functional
# [17] = molecular target: T1, Trace amine-associated receptor 1 (Homo sapiens, UniProt Q96RJ0); assay: Counterscreen for antagonists of the human trace amine associated receptor 1 (hTAAR1): Fluorescence-based cell-based high throughput dose response assay to identify TAAR1 Agonists.; format: functional
# T1 sequence (Q96RJ0 whole entry): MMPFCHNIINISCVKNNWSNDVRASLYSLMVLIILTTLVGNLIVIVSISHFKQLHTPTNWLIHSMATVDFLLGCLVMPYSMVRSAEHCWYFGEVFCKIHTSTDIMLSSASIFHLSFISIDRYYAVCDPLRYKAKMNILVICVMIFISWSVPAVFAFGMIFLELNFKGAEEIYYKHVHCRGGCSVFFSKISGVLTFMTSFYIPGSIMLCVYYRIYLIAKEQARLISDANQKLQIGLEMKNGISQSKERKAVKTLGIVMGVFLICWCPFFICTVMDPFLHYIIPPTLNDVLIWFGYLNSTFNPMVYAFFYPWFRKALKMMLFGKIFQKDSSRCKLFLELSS
# [18] = Counterscreen for antagonists of the human trace amine associated receptor 1 (hTAAR1): Fluorescence-based cell-based high throughput dose response assay to identify nonselective Ga16 antagonists.; format: functional
# [19] = Counterscreen for […] of the human trace amine associated receptor 1 (TAAR1): Fluorescence-based cell-based high throughput dose response assay to identify nonselective Ga16 agonists.; format: functional
# [20] = molecular target: T1, Trace amine-associated receptor 1; assay: Fluorescence-based cell-based high throughput dose response assay to identify antagonists of the human trace amine associated receptor 1 (TAAR1).; format: functional
# Chain of Scavenger receptor class B member 1 (Q61009 whole entry): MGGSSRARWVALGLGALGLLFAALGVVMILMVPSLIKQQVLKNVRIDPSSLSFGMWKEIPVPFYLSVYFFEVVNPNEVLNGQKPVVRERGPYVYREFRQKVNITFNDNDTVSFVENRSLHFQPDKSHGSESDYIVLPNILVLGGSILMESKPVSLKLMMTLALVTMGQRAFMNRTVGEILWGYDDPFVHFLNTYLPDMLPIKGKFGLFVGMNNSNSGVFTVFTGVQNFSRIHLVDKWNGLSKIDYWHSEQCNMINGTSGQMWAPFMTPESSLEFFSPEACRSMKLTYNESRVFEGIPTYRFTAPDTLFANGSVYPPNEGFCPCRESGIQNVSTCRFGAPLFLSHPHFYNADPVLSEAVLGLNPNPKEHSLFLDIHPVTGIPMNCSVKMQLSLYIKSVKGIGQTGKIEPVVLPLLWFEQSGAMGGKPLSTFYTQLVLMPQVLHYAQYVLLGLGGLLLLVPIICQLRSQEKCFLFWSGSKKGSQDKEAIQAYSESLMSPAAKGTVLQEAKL
# Chain of Potassium channel subfamily K member 3 (Homo sapiens, UniProt O14649) (O14649 whole entry, the tested form may be a part): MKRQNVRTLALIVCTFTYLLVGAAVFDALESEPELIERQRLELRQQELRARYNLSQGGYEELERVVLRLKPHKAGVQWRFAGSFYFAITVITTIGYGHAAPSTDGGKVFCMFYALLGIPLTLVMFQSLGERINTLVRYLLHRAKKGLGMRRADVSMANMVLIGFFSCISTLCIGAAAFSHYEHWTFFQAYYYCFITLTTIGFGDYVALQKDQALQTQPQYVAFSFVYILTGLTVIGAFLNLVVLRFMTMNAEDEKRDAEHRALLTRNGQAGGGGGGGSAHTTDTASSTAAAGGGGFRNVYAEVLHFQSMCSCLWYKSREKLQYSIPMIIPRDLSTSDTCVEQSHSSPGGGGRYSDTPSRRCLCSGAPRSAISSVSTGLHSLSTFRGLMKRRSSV
# Chain of Potassium channel subfamily K member 9 (Q9NPC2 whole entry): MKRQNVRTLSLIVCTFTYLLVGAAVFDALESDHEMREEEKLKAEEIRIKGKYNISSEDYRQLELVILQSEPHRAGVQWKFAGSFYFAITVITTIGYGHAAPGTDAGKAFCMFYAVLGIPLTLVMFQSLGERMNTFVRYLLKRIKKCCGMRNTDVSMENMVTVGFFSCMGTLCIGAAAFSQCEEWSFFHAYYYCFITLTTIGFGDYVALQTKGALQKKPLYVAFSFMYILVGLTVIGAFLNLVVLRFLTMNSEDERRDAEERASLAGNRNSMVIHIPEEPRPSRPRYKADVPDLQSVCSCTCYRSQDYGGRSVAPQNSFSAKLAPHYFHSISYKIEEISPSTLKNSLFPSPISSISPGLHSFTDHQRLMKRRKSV
# Chain of Delta-type opioid receptor (P41143 whole entry): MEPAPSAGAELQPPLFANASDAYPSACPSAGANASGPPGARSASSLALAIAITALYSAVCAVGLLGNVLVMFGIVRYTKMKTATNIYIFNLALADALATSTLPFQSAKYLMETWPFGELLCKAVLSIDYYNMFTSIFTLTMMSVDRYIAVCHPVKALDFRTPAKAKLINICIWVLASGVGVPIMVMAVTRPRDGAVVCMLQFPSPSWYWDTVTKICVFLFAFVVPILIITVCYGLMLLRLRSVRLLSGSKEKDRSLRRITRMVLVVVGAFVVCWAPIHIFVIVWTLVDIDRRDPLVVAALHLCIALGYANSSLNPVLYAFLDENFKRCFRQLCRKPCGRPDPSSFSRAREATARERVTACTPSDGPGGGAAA
# Chain of Mu-type opioid receptor (P35372 whole entry): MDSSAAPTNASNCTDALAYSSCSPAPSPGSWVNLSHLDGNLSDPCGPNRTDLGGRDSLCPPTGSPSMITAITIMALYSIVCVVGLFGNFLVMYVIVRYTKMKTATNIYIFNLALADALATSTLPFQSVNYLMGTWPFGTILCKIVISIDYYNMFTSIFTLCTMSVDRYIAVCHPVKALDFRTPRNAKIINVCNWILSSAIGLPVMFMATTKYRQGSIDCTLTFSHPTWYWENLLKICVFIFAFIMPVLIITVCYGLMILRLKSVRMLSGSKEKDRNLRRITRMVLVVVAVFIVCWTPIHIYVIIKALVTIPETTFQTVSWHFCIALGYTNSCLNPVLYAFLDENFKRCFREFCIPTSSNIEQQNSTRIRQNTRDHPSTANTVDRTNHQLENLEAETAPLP
# Chain of Metabotropic glutamate receptor 3 (P31422 whole entry): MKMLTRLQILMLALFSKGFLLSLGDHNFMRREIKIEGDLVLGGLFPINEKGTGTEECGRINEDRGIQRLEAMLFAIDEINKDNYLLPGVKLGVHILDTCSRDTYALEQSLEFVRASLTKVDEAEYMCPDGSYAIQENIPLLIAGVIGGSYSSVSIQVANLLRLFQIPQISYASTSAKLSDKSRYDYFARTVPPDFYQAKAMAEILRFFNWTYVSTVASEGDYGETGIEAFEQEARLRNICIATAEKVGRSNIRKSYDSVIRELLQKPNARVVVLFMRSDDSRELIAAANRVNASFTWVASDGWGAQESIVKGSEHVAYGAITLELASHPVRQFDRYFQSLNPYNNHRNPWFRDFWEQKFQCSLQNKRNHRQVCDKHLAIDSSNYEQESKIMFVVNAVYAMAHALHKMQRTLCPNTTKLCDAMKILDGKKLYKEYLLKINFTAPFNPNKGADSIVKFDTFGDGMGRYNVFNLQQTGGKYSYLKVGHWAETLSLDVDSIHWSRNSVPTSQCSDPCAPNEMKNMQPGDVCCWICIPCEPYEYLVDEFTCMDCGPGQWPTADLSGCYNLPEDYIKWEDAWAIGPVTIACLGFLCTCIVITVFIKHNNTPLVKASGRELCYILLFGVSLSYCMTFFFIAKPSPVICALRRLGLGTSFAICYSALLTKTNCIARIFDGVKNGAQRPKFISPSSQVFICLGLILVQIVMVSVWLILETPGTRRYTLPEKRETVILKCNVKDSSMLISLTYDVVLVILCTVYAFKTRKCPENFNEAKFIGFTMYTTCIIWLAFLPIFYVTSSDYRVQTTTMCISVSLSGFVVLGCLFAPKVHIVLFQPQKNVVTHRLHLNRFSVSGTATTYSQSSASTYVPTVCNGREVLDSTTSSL
# Chain of Potassium channel subfamily K member 3 (Rattus norvegicus, UniProt O54912) (O54912 whole entry, the tested form may be a part): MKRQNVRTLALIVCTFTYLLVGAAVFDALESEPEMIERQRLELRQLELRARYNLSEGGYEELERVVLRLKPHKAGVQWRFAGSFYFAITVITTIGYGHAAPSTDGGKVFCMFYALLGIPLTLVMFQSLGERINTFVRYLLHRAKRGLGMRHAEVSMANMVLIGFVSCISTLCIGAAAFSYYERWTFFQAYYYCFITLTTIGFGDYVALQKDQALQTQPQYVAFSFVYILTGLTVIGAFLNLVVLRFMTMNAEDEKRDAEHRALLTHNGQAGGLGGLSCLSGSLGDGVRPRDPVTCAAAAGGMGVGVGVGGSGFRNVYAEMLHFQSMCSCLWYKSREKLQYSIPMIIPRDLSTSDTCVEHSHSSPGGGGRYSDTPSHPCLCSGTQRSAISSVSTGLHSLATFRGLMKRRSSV
structure (smiles),measurement,setting,value
CC(C)NC(=O)Nc1ccc2c(c1)C(=O)N([C@@H](C)CO)C[C@@H](C)[C@H](CN(C)S(=O)(=O)c1ccc(Cl)cc1)O2,AC50,[1],0.154 µM (active)
C[C@H](CO)N1C[C@H](C)[C@H](CN(C)Cc2ccccc2F)Oc2cc(C3=CCCC3)ccc2S1(=O)=O,AC50,[2],18.8 µM (active)
same,AC50,[3],22.8 µM (active)
same,AC50,[4],19.4 µM (active)
same,AC50,[5],24.4 µM (active)
same,AC50,[6],18.8 µM (active)
Cc1noc(C)c1NC(=O)Nc1ccc2c(c1)C(=O)N(C)[C@@H]1CC[C@H](CC(=O)N[C@H]3CCN(Cc4ccccc4)C3)O[C@@H]1CO2,AC50,[7],> 47 µM (inactive)
same,AC50,[2],29.7 µM (active)
same,AC50,[6],29.7 µM (active)
COc1ccc(C#Cc2ccc(C(=O)N3CCCC(O)(Cc4ccccc4)C3)cc2)cc1 (configuration not stated),IC50,[8],8.87 µM (active)
O=C(Nc1nnc(-c2ccc3c(c2)OCCO3)o1)C(F)(F)c1ccccc1,AC50,[9],> 200 µM (inactive)
COC(=O)c1cc(Br)cnc1N1CCC(NC2CCCCC2)C1 (configuration not stated),IC50,[10],20 µM (inactive)
same,IC50,[11],> 50 µM (inactive)
CCOc1ccccc1NC(=O)c1cccc(NC(=O)c2cccc(Cl)c2)c1,IC50,[12],1.84 µM (active)
same,IC50,[13],0.039 µM (active)
same,IC50,[14],2.86 µM (active)
O=C(CN1CCOCC1)N1CCCCN2[C@@H](CO)[C@H](c3ccc(Br)cc3)[C@@H]2C1,AC50,[15],7.96 µM (active)
CN1CCN(C)/C(=N/c2ccc(C#N)cc2C(=O)Nc2ccccc2)C1,IC50,[16],0.38 µM (active)
Cc1ccc(/C=N/NC(=O)c2ccccc2OCc2cccc(Br)c2)o1,EC50,[17],> 29.9 µM (inactive)
same,IC50,[18],> 29.9 µM (inactive)
same,EC50,[19],> 29.9 µM (inactive)
same,IC50,[20],3.69 µM (active)
